Experimental data as given in article PMC4468608, “A distinct p53 target gene set predicts for response to the selective p53–HDM2 inhibitor NVP-CGM097” (eLife, 2015).

Tested on: cell lines from the Cancer Cell Line Encyclopedia (CCLE)
Experiment: High-throughput cell viability assay, CCLE cell line panel (n = 356)
Format: cell-based, human
Procedure: Cell lines were partitioned into sensitive and insensitive groups based on compound potency (IC50). […] All other cell lines were obtained from ATCC (American Type Culture Collection), DSMZ (Deutsche Sammlung von Mikroorganismen und Zellkulturen), and HSRRB (Health Science Research Resources Bank) and cultured in RPMI or Dulbecco's modified Eagle's medium plus 10% FBS (Invitrogen, Carlsbad, CA) at 37°C, 5% CO2.

[1] = cell line KMRC-1, kidney, TP53 WT
[2] = cell line KMS-27, haem._and_lymphoid_tissue, TP53 WT
[3] = cell line KMS-28BM, haem._and_lymphoid_tissue, TP53 WT
[4] = cell line KNS-42, central_nervous_system, TP53 MUT
[5] = cell line KYSE-410, oesophagus, TP53 MUT
[6] = cell line KYSE-450, oesophagus, TP53 MUT
[7] = cell line KYSE-510, oesophagus, TP53 MUT
[8] = cell line KYSE-520, oesophagus, TP53 MUT
[9] = cell line L-428, haem._and_lymphoid_tissue, TP53 MUT
[10] = cell line LN-229, central_nervous_system, TP53 WT
[11] = cell line MEL-HO, skin, TP53 WT
[12] = cell line MHH-ES-1, bone, TP53 MUT
[13] = cell line Malme-3M, skin, TP53 WT
[14] = cell line NCI-H460, lung, TP53 WT
[15] = cell line NCI-H647, lung, TP53 MUT
[16] = cell line NCI-H1299, lung, TP53 WT
[17] = cell line NCI-H1341, lung, TP53 WT
[18] = cell line NCI-H1650, lung, TP53 MUT
[19] = cell line NCI-H1693, lung, TP53 MUT
[20] = cell line NCI-H1703, lung, TP53 MUT
[21] = cell line OAW42, ovary, TP53 WT
[22] = cell line OE19, oesophagus, TP53 MUT
[23] = cell line OVCAR-8, ovary, TP53 MUT
[24] = cell line PE/CA-PJ41 (clone D2), upper_aerodigestive_tract, TP53 MUT
[25] = cell line PEER, haem._and_lymphoid_tissue, TP53 MUT
[26] = cell line SCaBER, urinary_tract, TP53 MUT
[27] = cell line SK-HEP-1, liver, TP53 WT
[28] = cell line SK-MEL-5, skin, TP53 WT
[29] = cell line SK-MEL-24, skin, TP53 WT
[30] = cell line SNG-M, endometrium, TP53 WT
[31] = cell line SNU-423, liver, TP53 MUT
[32] = cell line SW403, large_intestine, TP53 MUT
[33] = cell line SW 780, urinary_tract, TP53 WT
[34] = cell line SW 1573, lung, TP53 WT
[35] = cell line TE-9, oesophagus, TP53 MUT
[36] = cell line TE-11, oesophagus, TP53 MUT
[37] = cell line UM-UC-3, urinary_tract, TP53 MUT
[38] = cut-off IC50 4 µM, 356 cell lines

COc1cc2c(cc1OC(C)C)[C@H](c1ccc(Cl)cc1)N(c1ccc(N(C)C[C@H]3CC[C@H](N4CCNC(=O)C4)CC3)cc1)C(=O)C2 [NVP-CFC218]
NVP- CFC218 sensitivity call (cell line JHOS-2, ovary, TP53 MUT): insensitive (Sensitivity call for each compound was applied according to a cut-off of 4 µM for IC50 and -50% for Amax)
NVP- CFC218 Amax (%) [1]: -42.40%
NVP- CFC218 sensitivity call [1]: insensitive (Sensitivity call for each compound was applied according to a cut-off of 4 µM for IC50 and -50% for Amax)
NVP- CFC218 Amax (%) [2]: -1.14%
NVP- CFC218 sensitivity call [2]: insensitive (Sensitivity call for each compound was applied according to a cut-off of 4 µM for IC50 and -50% for Amax)
NVP- CFC218 Amax (%) [3]: 3.74%
NVP- CFC218 sensitivity call [3]: insensitive (Sensitivity call for each compound was applied according to a cut-off of 4 µM for IC50 and -50% for Amax)
NVP- CFC218 Amax (%) [4]: -8.48%
NVP- CFC218 sensitivity call [4]: insensitive (Sensitivity call for each compound was applied according to a cut-off of 4 µM for IC50 and -50% for Amax)
NVP- CFC218 Amax (%) [5]: -24.33%
NVP- CFC218 sensitivity call [5]: insensitive (Sensitivity call for each compound was applied according to a cut-off of 4 µM for IC50 and -50% for Amax)
NVP- CFC218 Amax (%) [6]: -1.37%
NVP- CFC218 sensitivity call [6]: insensitive (Sensitivity call for each compound was applied according to a cut-off of 4 µM for IC50 and -50% for Amax)
NVP- CFC218 Amax (%) [7]: 3.18%
NVP- CFC218 sensitivity call [7]: insensitive (Sensitivity call for each compound was applied according to a cut-off of 4 µM for IC50 and -50% for Amax)
NVP- CFC218 Amax (%) [8]: -5.52%
NVP- CFC218 sensitivity call [8]: insensitive (Sensitivity call for each compound was applied according to a cut-off of 4 µM for IC50 and -50% for Amax)
NVP- CFC218 Amax (%) [9]: -26.31%
NVP- CFC218 sensitivity call [9]: insensitive (Sensitivity call for each compound was applied according to a cut-off of 4 µM for IC50 and -50% for Amax)
NVP- CFC218 Amax (%) [10]: -42.01%
NVP- CFC218 sensitivity call [10]: insensitive (Sensitivity call for each compound was applied according to a cut-off of 4 µM for IC50 and -50% for Amax)
NVP- CFC218 Amax (%) [11]: -40.38%
NVP- CFC218 sensitivity call [11]: insensitive (Sensitivity call for each compound was applied according to a cut-off of 4 µM for IC50 and -50% for Amax)
NVP- CFC218 Amax (%) [12]: 1.25%
NVP- CFC218 sensitivity call [12]: insensitive (Sensitivity call for each compound was applied according to a cut-off of 4 µM for IC50 and -50% for Amax)
NVP- CFC218 Amax (%) [13]: -39.40%
NVP- CFC218 sensitivity call [13]: insensitive (Sensitivity call for each compound was applied according to a cut-off of 4 µM for IC50 and -50% for Amax)
NVP- CFC218 Amax (%) [14]: 0.31%
NVP- CFC218 sensitivity call [14]: insensitive (Sensitivity call for each compound was applied according to a cut-off of 4 µM for IC50 and -50% for Amax)
NVP- CFC218 Amax (%) [15]: -29.54%
NVP- CFC218 sensitivity call [15]: insensitive (Sensitivity call for each compound was applied according to a cut-off of 4 µM for IC50 and -50% for Amax)
NVP- CFC218 Amax (%) [16]: 0.83%
NVP- CFC218 sensitivity call [16]: insensitive (Sensitivity call for each compound was applied according to a cut-off of 4 µM for IC50 and -50% for Amax)
NVP- CFC218 Amax (%) [17]: -36.36%
NVP- CFC218 sensitivity call [17]: insensitive (Sensitivity call for each compound was applied according to a cut-off of 4 µM for IC50 and -50% for Amax)
NVP- CFC218 Amax (%) [18]: 2.72%
NVP- CFC218 sensitivity call [18]: insensitive (Sensitivity call for each compound was applied according to a cut-off of 4 µM for IC50 and -50% for Amax)
NVP- CFC218 Amax (%) [19]: -4.47%
NVP- CFC218 sensitivity call [19]: insensitive (Sensitivity call for each compound was applied according to a cut-off of 4 µM for IC50 and -50% for Amax)
NVP- CFC218 Amax (%) [20]: -40.27%
NVP- CFC218 sensitivity call [20]: insensitive (Sensitivity call for each compound was applied according to a cut-off of 4 µM for IC50 and -50% for Amax)
NVP- CFC218 Amax (%) [21]: -7.13%
NVP- CFC218 sensitivity call [21]: insensitive (Sensitivity call for each compound was applied according to a cut-off of 4 µM for IC50 and -50% for Amax)
NVP- CFC218 Amax (%) [22]: 14.48%
NVP- CFC218 sensitivity call [22]: insensitive (Sensitivity call for each compound was applied according to a cut-off of 4 µM for IC50 and -50% for Amax)
NVP- CFC218 Amax (%) [23]: -30.79%
NVP- CFC218 sensitivity call [23]: insensitive (Sensitivity call for each compound was applied according to a cut-off of 4 µM for IC50 and -50% for Amax)
NVP- CFC218 Amax (%) [24]: -0.29%
NVP- CFC218 sensitivity call [24]: insensitive (Sensitivity call for each compound was applied according to a cut-off of 4 µM for IC50 and -50% for Amax)
NVP- CFC218 Amax (%) [25]: -46.94%
NVP- CFC218 sensitivity call [25]: insensitive (Sensitivity call for each compound was applied according to a cut-off of 4 µM for IC50 and -50% for Amax)
NVP- CFC218 Amax (%) [26]: 0.88%
NVP- CFC218 sensitivity call [26]: insensitive (Sensitivity call for each compound was applied according to a cut-off of 4 µM for IC50 and -50% for Amax)
NVP- CFC218 Amax (%) [27]: -41.72%
NVP- CFC218 sensitivity call [27]: insensitive (Sensitivity call for each compound was applied according to a cut-off of 4 µM for IC50 and -50% for Amax)
NVP- CFC218 Amax (%) [28]: -47.83%
NVP- CFC218 sensitivity call [28]: insensitive (Sensitivity call for each compound was applied according to a cut-off of 4 µM for IC50 and -50% for Amax)
NVP- CFC218 Amax (%) [29]: -47.55%
NVP- CFC218 sensitivity call [29]: insensitive (Sensitivity call for each compound was applied according to a cut-off of 4 µM for IC50 and -50% for Amax)
NVP- CFC218 Amax (%) [30]: -25.75%
NVP- CFC218 sensitivity call [30]: insensitive (Sensitivity call for each compound was applied according to a cut-off of 4 µM for IC50 and -50% for Amax)
NVP- CFC218 Amax (%) [31]: -5.91%
NVP- CFC218 sensitivity call [31]: insensitive (Sensitivity call for each compound was applied according to a cut-off of 4 µM for IC50 and -50% for Amax)
NVP- CFC218 Amax (%) [32]: 51.39%
NVP- CFC218 sensitivity call [32]: insensitive (Sensitivity call for each compound was applied according to a cut-off of 4 µM for IC50 and -50% for Amax)
NVP- CFC218 Amax (%) [33]: -38.52%
NVP- CFC218 sensitivity call [33]: insensitive (Sensitivity call for each compound was applied according to a cut-off of 4 µM for IC50 and -50% for Amax)
NVP- CFC218 Amax (%) [34]: -48.52%
NVP- CFC218 sensitivity call [34]: insensitive (Sensitivity call for each compound was applied according to a cut-off of 4 µM for IC50 and -50% for Amax)
NVP- CFC218 Amax (%) (cell line Sq-1, lung, TP53 WT): 4.40%
NVP- CFC218 sensitivity call (cell line Sq-1, lung, TP53 WT): insensitive (Sensitivity call for each compound was applied according to a cut-off of 4 µM for IC50 and -50% for Amax)
NVP- CFC218 Amax (%) [35]: -6.46%
NVP- CFC218 sensitivity call [35]: insensitive (Sensitivity call for each compound was applied according to a cut-off of 4 µM for IC50 and -50% for Amax)
NVP- CFC218 Amax (%) [36]: -3.43%
NVP- CFC218 sensitivity call [36]: insensitive (Sensitivity call for each compound was applied according to a cut-off of 4 µM for IC50 and -50% for Amax)
NVP- CFC218 Amax (%) [37]: -27.23%
NVP- CFC218 sensitivity call [37]: insensitive (Sensitivity call for each compound was applied according to a cut-off of 4 µM for IC50 and -50% for Amax)
NVP- CFC218 Amax (%) (cell line WM-88, skin, TP53 WT): -37.15%
NVP- CFC218 sensitivity call (cell line WM-88, skin, TP53 WT): insensitive (Sensitivity call for each compound was applied according to a cut-off of 4 µM for IC50 and -50% for Amax)
Number of insensitive cell lines, p53MUT [38]: 252
Number of insensitive cell lines, p53WT [38]: 57
Number of insensitive cell lines, total [38]: 309
Number of sensitive cell lines, p53MUT [38]: 4
Number of sensitive cell lines, p53WT [38]: 43
baseline response rate without prior stratification (estimated from the NVP-CFC218 sensitivity data): 19%
maximal compound effect level (Amax) (for the sensitive cell lines): ≤ −50%
